Laboratory results as given in US20040235922A1, “Compositions and methods for inducing adipose tissue cell death” (priority 2003, published 2004).
“Also recorded” adds a separate entry of the source.

Experiments:
brain and liver = settings: in vivo; cited from earlier work
mouse adipocytes = settings: in vitro; cited from earlier work
EPI/PAR and RP fat pads = experiment: EPI/PAR and RP fat pad apoptosis, % DNA fragmentation (Example 2); format: in vivo; settings: 200 ppm in diet, 21 days, WT and GDF-8 KO mice
Description: (§1) Animals: Twelve-week old male (n=10) and female (n=10) GDF-8 (−/−) knockout mice and male (n=10) and female (n=10) GDF-8 (+/+) WT mice were used in the study. GDF-8 knockout mice, which were derived from the 129/SvJ mouse strain, were originally obtained from MetaMorphix Inc. and were bred in-house for the study. Mice were housed singly in suspended wire cages in a room maintained at 22±1 C and with a 12:12 hour light/dark cycle. Mice were provided ground rodent chow (ProLab® RMH 2500; Purina Mills, St. Louis, Mo.) and water ad libitum. Mice were cared for in accordance with the Guide for the Care and Use of Laboratory Animals.
(§2) Materials: Clenbuterol (Sigma Chemical Company, St. Louis, Mo., item# C5423), was thoroughly mixed into the ground rodent chow to provide a 200 ppm concentration.
DNA Isolation and Apoptosis Assay: DNA was isolated from fresh fat tissues and separated into two fractions: fragmented and genomic DNA. The samples were first run on an agarose gel to identify a ladder pattern of internucleosomal DNA degradation, which is characteristic of apoptosis (Qian, H., M. J. Azain, M. M. Compton, D. L. Hartzell, G. J. Hausman, and C. A. Baile, Brain administration of leptin causes deletion of adipocytes by apoptosis. Endocrinology, 1998. 139(2): p. 791-4). Apoptosis was then quantified as the ratio of fragmented- to total-DNA as previously described (Gullicksen, P. S., R. G. Dean, and C. A. Baile, Detection of DNA Fragmentation and Apoptotic Proteins, and Quantification of Uncoupling Protein Expression by Real-Time RT-PCR in Adipose Tissue. J Biochem Biophys Methods, 2004. 58(1): p. 1-13). […] DNA content was measured using PicoGreen (Molecular Probes, Inc., Eugene, Oreg.) on a SpectraMax Gemini Spectrofluorometer (Molecular Devices, Sunnyvale, Calif.). […] Apoptosis was verified by the presence of a DNA ladder pattern, which was visualized by a Fluor Chem 8000 fluorescence imaging system (Alpha Innotech, San Leandro, Calif.).
Statistical Analysis: The study was analyzed as a 2×2×2 factorial design (N=5/cell). […]

[1] = Clenbuterol feeding for 21 days in WT and GDF-8 KO mice: body weight, weight gain, food intake, feed efficiency (Example 2); format: in vivo; settings: 200 ppm in diet
Description: The effects of clenbuterol on muscularity and adiposity in male and female GDF-8 knockout (GDF-8 KO) (n=20) and wild type (WT) mice (n=20) were tested by feeding 0 or 200 ppm clenbuterol for 21 days. […] For all other variables, GDF-8 KO and WT mice responded similarly to clenbuterol.
as §1, §2
(§3) Daily Observations: Food intake was measured daily, and body weight was measured on days 0, 3, 7, 10, 14, 17, 20, and 21 at approximately 1430 h during the treatment period. At 15 weeks of age (day 21), a final body weight measurement was obtained approximately one hour prior to euthanasia, and mice were sacrificed by decapitation following CO2 asphyxiation.
Statistical Analysis: The study was analyzed as a 2×2×2 factorial design (N=5/cell). Analysis of variance (SAS) was used to determine significance of main effects of gender, genotype (WT vs. GDF-8 KO) and clenbuterol (0 vs. 200 ppm) and interactions. Statistically significant differences are defined at the 95% confidence interval.
Feed efficiency was calculated as the total food intake (g)/cumulative weight gain (g). There was a trend (p=0.07) for clenbuterol to improve feed efficiency (g feed/g weight gain) (Table 3).

serum leptin = experiment: Serum leptin concentration in WT and GDF-8 KO mice (Example 2); format: in vivo; settings: 200 ppm in diet
Description: as §1, §2, §3

[2] = WT and GDF-8 KO mice, main effect, Mean ± SEM

CC(C)(C)NCC(O)c1cc(Cl)c(N)c(Cl)c1 (centres unmarked) [Clenbuterol, clenbuterol]
Apoptosis in brain and liver (brain and liver): protect against apoptosis | Insulin-induced lipolysis in mouse adipocytes (mouse adipocytes): inhibited | Lipolysis in mouse adipocytes (mouse adipocytes): stimulated | Adipocyte apoptosis in EPI/PAR and RP fat pads compared to control (EPI/PAR and RP fat pads): increased | % DNA Fragmentation EPI/PAR (EPI/PAR and RP fat pads; Mean ± SEM, control 0.9 ± 0.1): 2.5 ± 0.2 % | % DNA Fragmentation RP (EPI/PAR and RP fat pads; Mean ± SEM, control 0.9 ± 0.2): 2.5 ± 0.2 % | Effect on final body weight (FBW) [1]: did not significantly affect | Food Intake [1, 2]: 4.78 ± 0.16 g/day | Wt Gain [1, 2]: 0.165 ± 0.01 g/day | Feed Efficiency ([1]; WT and GDF-8 KO mice, main effect, p = 0.07): 34.4 g feed/g wt gain | Effect on food intake, body weight or body composition ([1]; WT or GDF-8 KO mice): did not affect | Final Body Wt ([1]; female and male WT and GDF-8 KO mice, main effect, Mean ± SEM): 29.9 ± 1.2 g | Feed efficiency in females compared to control ([1]; female mice): no effect; also recorded: not in females | Weight gain in females compared to control ([1]; female mice): not in females | Weight gain compared to control ([1]; main effect, p<0.05): increased | Feed efficiency in males compared to control ([1]; male mice): more than doubled; also recorded: significantly improved | More efficient (feed efficiency) compared to males fed control diet ([1]; male mice): more than 250% | Weight gain in males compared to control ([1]; male mice): significantly increased; also recorded: twice as much | Effect on serum leptin concentrations (serum leptin): did not significantly affect; also recorded: not affected | Serum Leptin Concentration (serum leptin; 20 days, Mean ± SEM): 3.98 ± 0.49 ng/mL
